Measured values as given in ChEMBL document CHEMBL1201862, “PubChem BioAssay data set” (2004).
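All cell lines were grown in 96-well plates and treated with compound for 48 hours. At the GI50, growth is halved.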 Active and inactive are the calls of the source. No stated cut-off is given here; in the data, active = GI50 up to about 1.1 µM and inactive = higher.

Tests used:
Assay in all cases: NCI anticancer screen, dose series, 48 h
CAKI-1 = system: CAKI-1
CCRF-CEM = system: CCRF-CEM
EKVX = system: EKVX
HCT-116 = system: HCT-116
MCF7 = system: MCF7
MDA-MB-231 = system: MDA-MB-231
NCI-H226 = system: NCI-H226
NCI-H460 = system: NCI-H460
NCI/ADR-RES = system: NCI/ADR-RES
RXF 393 = system: RXF 393
SF-268 = system: SF-268
SF-295 = system: SF-295
SK-MEL-2 = system: SK-MEL-2
SNB-75 = system: SNB-75
SW-620 = system: SW-620
U-251 = system: U-251
SR = system: SR

Compound	GI50 (CAKI-1)	GI50 (CCRF-CEM)	GI50 (EKVX)	GI50 (HCT-116)	GI50 (MCF7)	GI50 (MDA-MB-231)	GI50 (NCI-H226)	GI50 (NCI-H460)	GI50 (NCI/ADR-RES)	GI50 (RXF 393)	GI50 (SF-268)	GI50 (SF-295)	GI50 (SK-MEL-2)	GI50 (SNB-75)	GI50 (SW-620)	GI50 (U-251)	GI50 (SR)
CC(=O)O[C@H]1C#C/C=C\C#CC[C@@H]2C(=O)N[C@@H]12	4.5 µM (inactive)	4.13 µM (inactive)	> 100 µM (inactive)	27 µM (inactive)	4 µM (inactive)	> 100 µM (inactive)	25.7 µM (inactive)	0.0382 µM (active)	20.7 µM (inactive)	23.2 µM (inactive)	18.6 µM (inactive)	24.5 µM (inactive)	67.8 µM (inactive)	28.1 µM (inactive)	> 51.3 µM (inactive)	20.9 µM (inactive)	–
O=C(NC(Cc1c[nH]c2ccccc12)C(=O)O)/C(=C/c1ccccc1O)NC(=O)c1ccccc1 (stereo unspecified)	18.8 µM (inactive)	> 100 µM (inactive)	29.2 µM (inactive)	42.6 µM (inactive)	3.08 µM (inactive)	21 µM (inactive)	16.3 µM (inactive)	33.2 µM (inactive)	13.9 µM (inactive)	28.5 µM (inactive)	17.6 µM (inactive)	19.8 µM (inactive)	–	17.4 µM (inactive)	> 100 µM (inactive)	39.1 µM (inactive)	> 100 µM (inactive)
Cc1ccc(Nc2c3c(c(C#N)c4nc5ccccc5n24)CCCC3)cc1	25.4 µM (inactive)	6.05 µM (inactive)	17.3 µM (inactive)	10.9 µM (inactive)	9.89 µM (inactive)	22.5 µM (inactive)	21.7 µM (inactive)	16.9 µM (inactive)	21.3 µM (inactive)	–	> 100 µM (inactive)	13 µM (inactive)	13.1 µM (inactive)	–	15.4 µM (inactive)	17.5 µM (inactive)	–
N=C(CSSCC(=N)NCC12CC3CC(CC(C3)C1)C2)NCC12CC3CC(CC(C3)C1)C2	18.7 µM (inactive)	–	–	22.4 µM (inactive)	29.7 µM (inactive)	2.12 µM (inactive)	20.9 µM (inactive)	29.2 µM (inactive)	17.1 µM (inactive)	> 100 µM (inactive)	37.7 µM (inactive)	14.2 µM (inactive)	22.3 µM (inactive)	20.8 µM (inactive)	17.5 µM (inactive)	14.3 µM (inactive)	–
O=C1C2C(C(=O)N1c1ccccc1)C1(c3ccccc3)CCC2(C(=O)c2ccccc2)O1 (stereo unspecified)	> 10 µM (inactive)	> 10 µM (inactive)	> 10 µM (inactive)	> 10 µM (inactive)	> 10 µM (inactive)	> 10 µM (inactive)	–	> 10 µM (inactive)	> 10 µM (inactive)	> 10 µM (inactive)	> 10 µM (inactive)	> 10 µM (inactive)	> 10 µM (inactive)	–	> 10 µM (inactive)	> 10 µM (inactive)	–
N=C(N)SCc1ccc(N=C=S)cc1	12.7 µM (inactive)	6.93 µM (inactive)	15.9 µM (inactive)	14 µM (inactive)	–	7.74 µM (inactive)	15.6 µM (inactive)	14.9 µM (inactive)	16.9 µM (inactive)	3.56 µM (inactive)	20.2 µM (inactive)	17.1 µM (inactive)	10.4 µM (inactive)	10.2 µM (inactive)	12.9 µM (inactive)	15.2 µM (inactive)	17.6 µM (inactive)
CC(=O)Oc1ccc2c(c1)Oc1cc(C(C)=O)ccc1C21OC(=O)c2ccccc21 (stereo unspecified)	> 100 µM (inactive)	–	> 100 µM (inactive)	> 100 µM (inactive)	> 100 µM (inactive)	> 100 µM (inactive)	–	> 100 µM (inactive)	> 100 µM (inactive)	39.7 µM (inactive)	1.8 µM (inactive)	> 100 µM (inactive)	> 100 µM (inactive)	94.8 µM (inactive)	> 100 µM (inactive)	> 100 µM (inactive)	–
N=c1c2ccccc2nc2oc3ccccc3n12	44.4 µM (inactive)	55 µM (inactive)	1.91 µM (inactive)	36.6 µM (inactive)	45.1 µM (inactive)	–	–	> 10 µM (inactive)	31.5 µM (inactive)	–	14.9 µM (inactive)	> 100 µM (inactive)	37.5 µM (inactive)	–	93.5 µM (inactive)	–	–
NS(=O)(=O)c1ccc(N2C(=O)C(=O)N(c3ccccc3)C2=S)cc1	> 100 µM (inactive)	> 100 µM (inactive)	93.8 µM (inactive)	> 100 µM (inactive)	–	> 100 µM (inactive)	61.1 µM (inactive)	> 100 µM (inactive)	> 100 µM (inactive)	75.7 µM (inactive)	> 100 µM (inactive)	> 100 µM (inactive)	> 100 µM (inactive)	74.3 µM (inactive)	> 100 µM (inactive)	> 100 µM (inactive)	18.9 µM (inactive)
CC(=O)Nc1ccc(NC(=O)c2c(Cl)c(Cl)c(Cl)c(Cl)c2-c2nc3ccccc3[nH]2)cc1	38.7 µM (inactive)	32.7 µM (inactive)	33.3 µM (inactive)	32.1 µM (inactive)	26.7 µM (inactive)	–	35.4 µM (inactive)	24.7 µM (inactive)	–	29.4 µM (inactive)	53.5 µM (inactive)	38.3 µM (inactive)	–	73.3 µM (inactive)	48.5 µM (inactive)	–	27.2 µM (inactive)
c1ccc(CCN2CCc3[nH]c4ccccc4c3C2)cc1	–	32.6 µM (inactive)	33.4 µM (inactive)	14.5 µM (inactive)	18.8 µM (inactive)	33 µM (inactive)	29.8 µM (inactive)	13.7 µM (inactive)	20.3 µM (inactive)	17.5 µM (inactive)	71.1 µM (inactive)	15.1 µM (inactive)	–	29 µM (inactive)	16.1 µM (inactive)	18 µM (inactive)	27.9 µM (inactive)
O=[N+]([O-])c1ccc(NN=C2CN3CCN(C2)c2ccccc23)c([N+](=O)[O-])c1	> 100 µM (inactive)	> 100 µM (inactive)	40.6 µM (inactive)	> 100 µM (inactive)	> 100 µM (inactive)	> 100 µM (inactive)	–	> 100 µM (inactive)	> 100 µM (inactive)	–	> 100 µM (inactive)	> 100 µM (inactive)	–	–	> 100 µM (inactive)	> 100 µM (inactive)	> 100 µM (inactive)
O=C(O)/C(=C/c1ccccc1)c1ccccc1	> 100 µM (inactive)	> 100 µM (inactive)	> 100 µM (inactive)	> 100 µM (inactive)	> 100 µM (inactive)	> 100 µM (inactive)	–	> 100 µM (inactive)	> 100 µM (inactive)	> 100 µM (inactive)	> 100 µM (inactive)	> 100 µM (inactive)	> 100 µM (inactive)	> 100 µM (inactive)	> 100 µM (inactive)	> 100 µM (inactive)	–
CC1(CC(=O)OC(C#C[Si](C)(C)C)Cc2ccccc2)OCCO1 (stereo unspecified)	> 100 µM (inactive)	> 100 µM (inactive)	> 100 µM (inactive)	> 100 µM (inactive)	> 100 µM (inactive)	> 100 µM (inactive)	> 100 µM (inactive)	–	> 100 µM (inactive)	> 100 µM (inactive)	> 100 µM (inactive)	> 100 µM (inactive)	> 100 µM (inactive)	> 100 µM (inactive)	> 100 µM (inactive)	> 100 µM (inactive)	–
OCC1C(O)C(O)[C@@H]2SCCN12 (stereo partly specified)	> 100 µM (inactive)	> 100 µM (inactive)	> 100 µM (inactive)	> 100 µM (inactive)	–	> 100 µM (inactive)	> 100 µM (inactive)	> 100 µM (inactive)	> 100 µM (inactive)	> 100 µM (inactive)	> 100 µM (inactive)	> 100 µM (inactive)	> 100 µM (inactive)	> 100 µM (inactive)	> 100 µM (inactive)	> 100 µM (inactive)	> 100 µM (inactive)
CN(C)P(=O)(Oc1occc1C(O)Cc1ccccc1)N(C)C (stereo unspecified)	> 100 µM (inactive)	> 100 µM (inactive)	> 100 µM (inactive)	> 100 µM (inactive)	> 100 µM (inactive)	> 100 µM (inactive)	> 100 µM (inactive)	> 100 µM (inactive)	> 100 µM (inactive)	> 100 µM (inactive)	> 100 µM (inactive)	> 100 µM (inactive)	> 100 µM (inactive)	> 100 µM (inactive)	> 100 µM (inactive)	> 100 µM (inactive)	–
CN(C)c1ccc(/C=C(\NC(=O)c2ccccc2)c2nn(C)c(=O)o2)cc1	> 100 µM (inactive)	34.7 µM (inactive)	> 100 µM (inactive)	> 100 µM (inactive)	> 100 µM (inactive)	> 100 µM (inactive)	23.4 µM (inactive)	44.4 µM (inactive)	21.7 µM (inactive)	> 100 µM (inactive)	44.1 µM (inactive)	47.5 µM (inactive)	52.5 µM (inactive)	16.9 µM (inactive)	52 µM (inactive)	24 µM (inactive)	–
Cc1ccc(/N=C2\SC(=NN(C)C)S\C2=N/c2ccc(C)cc2)cc1	> 100 µM (inactive)	> 100 µM (inactive)	> 100 µM (inactive)	> 100 µM (inactive)	–	> 100 µM (inactive)	> 100 µM (inactive)	> 100 µM (inactive)	> 100 µM (inactive)	> 100 µM (inactive)	> 100 µM (inactive)	> 100 µM (inactive)	> 100 µM (inactive)	> 100 µM (inactive)	> 100 µM (inactive)	> 100 µM (inactive)	> 100 µM (inactive)
